System: Propionibacterium granulosum ATCC 11829
Assay: MIC and MBC by the agar dilution method
Assay type: cell-based
Experimental: To assess the anti-microbial potency of Neramexane against acne relevant bacterias the minimal inhibitory concentration (MIC) and minimal bactericidal concentration (MBC) against the following bacterias is established: The MICs of the samples are determined using the agar dilution method based on DIN 58940. Petri dishes of 5.5 cm diameter are poured with 2.5 ml of freshly prepared Mueller-Hinton agar (Merck company, Cat-No 1.05437) or Wilkins-Chalgren-Agar (Oxoid company, Cat-No CM643), maintained in liquid form at 50° C., to which the sample dilutions at various concentrations have been added at 50.0 vol.-%. To prepare the starting sample dilutions, a 12.5%, 3.12% suspension of the respective sample solution is prepared with Aqua purificata. From these stock-solutions, further dilutions are prepared with Aqua purificata. All test compounds are adjusted to pH 5.5. For test product no. 1, separate dilutions adjusted to pH 6.0 and pH 7.4 are also prepared. For inoculation, 1 μl of the respective germ suspension is placed on the centre of each agar plate. After drying, inoculated plates are incubated at 36.0±2.0° C. The basis for the length of incubation period is the respective growth control cultivated in parallel. The test microbe suspension is prepared by inoculating a few individual colonies of the respective bacteria into sterile saline solution until a turbidity corresponding to the McFarland standard 1.0 (approximately 10^8 cfu/ml) is reached. After that, the test microbe suspensions are further diluted 1:10 with saline solution and the microbial counts (see Table 21) are determined by the surface spread method using a spiral plater. The agar plates are incubated under the conditions given in Table 22 and subsequently evaluated. The MIC-values as given represent the lowest concentration of the active substance at which there is no macroscopically visible growth. Minimal, barely visible growth or few small individual colonies are evaluated as inhibition. [table] All negative tests of the determination of the minimal bactericial concentration are the basis of verification of remaining germs, the inoculated agar segments are cut and put in Mueller-Hinton-Bouillon (germ 1) or Wilkins-Chalgren-Bouillon (germs 2-4). After an adequate incubation period at 36.0±2.0° C. (as judged from a control without test compound), the tests are checked manually on microbial growth (=turbidity) and the minimal bactericidal concentration is determined. MBC indicates the concentration without marked turbidity. Grown germs are checked for identity to rule out unspecific contaminations. The following results are summarized and tabulated: • a) Results of the Minimal Inhibitory Concentration (MIC)* • b) Results of the Minimal Bactericidal Concentration (MBC) *The MIC is the concentration without macroscopical growth. Scarcely apparent, minimum growth or few single colonies are not considered. The controls must have a respectively good developed growth. There must be no growth on the agar plates for the sterile control. The growth of bacteria is indicated for the duplicate plates by a +(i.e., growth) or a −(i.e., no growth), +− indicates weak growth on both plates or growth on one plate and no growth on the other plate. All bacteria show appropriate growth on the respective control plate not containing any test compound. No influence of the used diluent (Aqua purifacata) was observed. No contamination is observed on the control-plates.

[1] = final concentration 0.08 %, pH 5.5
[2] = final concentration 0.08 %, pH 6.0
[3] = final concentration 0.08 %, pH 7.4
[4] = final concentration 0.16 %, pH 5.5
[5] = final concentration 0.16 %, pH 6.0
[6] = final concentration 0.16 %, pH 7.4
[7] = final concentration 0.31 %, pH 5.5
[8] = final concentration 0.31 %, pH 6.0
[9] = final concentration 0.31 %, pH 7.4
[10] = final concentration 0.63 %, pH 5.5
[11] = final concentration 0.63 %, pH 6.0
[12] = final concentration 0.63 %, pH 7.4
[13] = final concentration 1.56 %, pH 5.5
[14] = final concentration 1.56 %, pH 6.0
[15] = final concentration 1.56 %, pH 7.4
[16] = final concentration 2.50 %, pH 5.5
[17] = final concentration 2.50 %, pH 6.0
[18] = final concentration 2.50 %, pH 7.4
[19] = final concentration 3.13 %, pH 5.5
[20] = final concentration 3.13 %, pH 6.0
[21] = final concentration 3.13 %, pH 7.4
[22] = final concentration 6.25 %, pH 5.5
[23] = final concentration 6.25 %, pH 6.0
[24] = final concentration 6.25 %, pH 7.4

Structure (SMILES): CC1(C)CC(C)(C)CC(C)(N)C1.CS(=O)(=O)O [Neramexane mesylate]
- growth of bacteria on duplicate plates (MIC determination) (final concentration 0.01 %, pH 5.5): + +
- growth of bacteria on duplicate plates (MIC determination) (final concentration 0.01 %, pH 6.0): + +
- growth of bacteria on duplicate plates (MIC determination) (final concentration 0.01 %, pH 7.4): + +
- growth of bacteria on duplicate plates (MIC determination) (final concentration 0.04 %, pH 5.5): + +
- growth of bacteria on duplicate plates (MIC determination) (final concentration 0.04 %, pH 6.0): + −
- growth of bacteria on duplicate plates (MIC determination) (final concentration 0.04 %, pH 7.4): + −
- growth of bacteria (MBC determination) [1]: + +
- growth of bacteria on duplicate plates (MIC determination) [1]: − −
- growth of bacteria (MBC determination) [2]: + +
- growth of bacteria on duplicate plates (MIC determination) [2]: − −
- growth of bacteria (MBC determination) [3]: + +
- growth of bacteria on duplicate plates (MIC determination) [3]: − −
- growth of bacteria (MBC determination) [4]: + +
- growth of bacteria on duplicate plates (MIC determination) [4]: − −
- growth of bacteria (MBC determination) [5]: + +
- growth of bacteria on duplicate plates (MIC determination) [5]: − −
- growth of bacteria (MBC determination) [6]: + +
- growth of bacteria on duplicate plates (MIC determination) [6]: − −
- growth of bacteria (MBC determination) [7]: + +
- growth of bacteria on duplicate plates (MIC determination) [7]: − −
- growth of bacteria (MBC determination) [8]: − −
- growth of bacteria on duplicate plates (MIC determination) [8]: − −
- growth of bacteria (MBC determination) [9]: + +
- growth of bacteria on duplicate plates (MIC determination) [9]: − −
- growth of bacteria (MBC determination) [10]: − −
- growth of bacteria on duplicate plates (MIC determination) [10]: − −
- growth of bacteria (MBC determination) [11]: − −
- growth of bacteria on duplicate plates (MIC determination) [11]: − −
- growth of bacteria (MBC determination) [12]: + +
- growth of bacteria on duplicate plates (MIC determination) [12]: − −
- growth of bacteria (MBC determination) [13]: − −
- growth of bacteria on duplicate plates (MIC determination) [13]: − −
- growth of bacteria (MBC determination) [14]: − −
- growth of bacteria on duplicate plates (MIC determination) [14]: − −
- growth of bacteria (MBC determination) [15]: − −
- growth of bacteria on duplicate plates (MIC determination) [15]: − −
- growth of bacteria (MBC determination) [16]: − −
- growth of bacteria on duplicate plates (MIC determination) [16]: − −
- growth of bacteria (MBC determination) [17]: − −
- growth of bacteria on duplicate plates (MIC determination) [17]: − −
- growth of bacteria (MBC determination) [18]: − −
- growth of bacteria on duplicate plates (MIC determination) [18]: − −
- growth of bacteria (MBC determination) [19]: − −
- growth of bacteria on duplicate plates (MIC determination) [19]: − −
- growth of bacteria (MBC determination) [20]: − −
- growth of bacteria on duplicate plates (MIC determination) [20]: − −
- growth of bacteria (MBC determination) [21]: − −
- growth of bacteria on duplicate plates (MIC determination) [21]: − −
- growth of bacteria (MBC determination) [22]: − −
- growth of bacteria on duplicate plates (MIC determination) [22]: − −
- growth of bacteria (MBC determination) [23]: − −
- growth of bacteria on duplicate plates (MIC determination) [23]: − −
- growth of bacteria (MBC determination) [24]: − −
- growth of bacteria on duplicate plates (MIC determination) [24]: − −
- MBC (pH 5.5): 0.63%
- MIC (pH 5.5): 0.08%
- MBC (pH 6.0): 0.31%
- MIC (pH 6.0): 0.08%
- MBC (pH 7.4): 1.56%
- MIC (pH 7.4): 0.08%

From patent publication US20140228440A1, “1-AMINO-ALKYLCYCLOHEXANE DERIVATIVES FOR THE TREATMENT OF INFLAMMATORY SKIN DISEASES” (MERZ PHARMA GmbH & CO. KGaA, priority 2008, published 2014)
